Test results reported in patent US20230066011A1, “PYRROLOPYRIMIDINE DERIVATIVE, AND PHARMACEUTICAL COMPOSITION FOR PREVENTING OR TREATING PROTEIN KINASE-RELATED DISEASE COMPRISING SAME AS ACTIVE INGREDIENT” (VORONOI CO., LTD., priority 2019, published 2023).

Key:
Assay type in all cases: biochemical
LRRK2 (G2019S) = LRRK2 (G2019S) (Homo sapiens, UniProt Q5S007, G2019S); assay: LRRK2 G2019S enzyme inhibition, ADP-Glo kinase assay; parameters: purchased SignalChem L10-12GG; conditions: ATP 25 μM
Procedure: To evaluate an inhibitory activity of the compound according to the present invention against LRRK2, LRRK2 (G2019S), DYRK1, CLK1, and TTK kinases, experiments were performed as follows.
Each of the Example compounds was reacted with a purified human LRRK2 G2019S (L10-12GG, SignalChem) enzyme to evaluate an ability to inhibit an enzyme using a method as described below. A composition of 40 mM Tris-HCl (pH 7.4), 20 mM MgCl2, 0.5 mg/mL BSA, and 50 μM DTT was used as a reaction buffer, and all reactions of test substances were performed in the reaction buffer. Each of the compounds was diluted […] from a 10 mM DMSO stock using a serial dilution method, and enzyme activities were measured at final compound concentrations of 50, 10, 2, 0.4, 0.08, 0.016, 0.0032, 0.00064, 0.000128, 0.0000256, 0.00000512, and 0.000001024 μM. In the test, purified ATP (25 μM) and an enzyme substrate (0.2 μg) were reacted with a human LRRK2 G2019S (16 ng) enzyme at 25° C. for 2 hours, and the enzyme activities were then determined using an in vitro ADP-Glo™ kinase assay (Promega). An enzyme-activity reaction solution, an ADP-Glo reaction solution, and an enzyme-ability detection solution were reacted at a ratio of 2:2:1 to measure a degree of inhibition of the enzyme activity with luminescence. The degree of inhibition of the enzyme activity according to the treatment concentration of each of the compounds was calculated based on the fluorescence of the enzyme activity of the solvent control which was not treated with the compound. In this case, the concentration of each of the compounds inhibiting 50% of the enzyme activity was determined to be an IC50 (nM) value, and calculated using Prism (Version 5.01; GraphPad) software.

human GST-DYRK1A = target: T1, human GST-DYRK1A (Homo sapiens, UniProt Q13627); assay: GST-DYRK1A enzyme inhibition, ADP-Glo kinase assay; conditions: ATP 10 μM, GST-DYRK1A full length, read-out: DYRK1 IC50
T1 construct: purified human GST-DYRK1A (full length, Thermo Scientifics) enzyme; purchased Thermo Scientifics
In short: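 Full-length enzyme (10 ng) was incubated with 10 μM ATP and a specific substrate for 1 h at 25 °C in 40 mM Tris-HCl pH 7.4, 20 mM MgCl2, 0.5 mg/mL BSA, 50 μM DTT. Luminescence was read against a solvent control, and IC50 values were derived from 3 data sets.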

human GST-CLK1 = target: T2, human GST-CLK1 (Homo sapiens, UniProt P49759); assay: GST-CLK1 enzyme inhibition, ADP-Glo kinase assay; conditions: ATP 10 μM, GST-CLK1 129-end
T2 construct: purified human GST-CLK1 (129-end, SignalChem) enzyme; purchased SignalChem
In short: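 ADP-Glo luminescence read-out, relative to untreated solvent control, gave IC50 (nM) from triplicate data sets. Reactions ran an hour at 25° C with 3 ng GST-CLK1 (residues 129-end), 10 μM ATP and specific substrate in Tris-HCl pH 7.4 buffer with MgCl2, BSA and DTT.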

Chain of LRRK2 (G2019S) (Q5S007 970-2527 G2019S limits assumed): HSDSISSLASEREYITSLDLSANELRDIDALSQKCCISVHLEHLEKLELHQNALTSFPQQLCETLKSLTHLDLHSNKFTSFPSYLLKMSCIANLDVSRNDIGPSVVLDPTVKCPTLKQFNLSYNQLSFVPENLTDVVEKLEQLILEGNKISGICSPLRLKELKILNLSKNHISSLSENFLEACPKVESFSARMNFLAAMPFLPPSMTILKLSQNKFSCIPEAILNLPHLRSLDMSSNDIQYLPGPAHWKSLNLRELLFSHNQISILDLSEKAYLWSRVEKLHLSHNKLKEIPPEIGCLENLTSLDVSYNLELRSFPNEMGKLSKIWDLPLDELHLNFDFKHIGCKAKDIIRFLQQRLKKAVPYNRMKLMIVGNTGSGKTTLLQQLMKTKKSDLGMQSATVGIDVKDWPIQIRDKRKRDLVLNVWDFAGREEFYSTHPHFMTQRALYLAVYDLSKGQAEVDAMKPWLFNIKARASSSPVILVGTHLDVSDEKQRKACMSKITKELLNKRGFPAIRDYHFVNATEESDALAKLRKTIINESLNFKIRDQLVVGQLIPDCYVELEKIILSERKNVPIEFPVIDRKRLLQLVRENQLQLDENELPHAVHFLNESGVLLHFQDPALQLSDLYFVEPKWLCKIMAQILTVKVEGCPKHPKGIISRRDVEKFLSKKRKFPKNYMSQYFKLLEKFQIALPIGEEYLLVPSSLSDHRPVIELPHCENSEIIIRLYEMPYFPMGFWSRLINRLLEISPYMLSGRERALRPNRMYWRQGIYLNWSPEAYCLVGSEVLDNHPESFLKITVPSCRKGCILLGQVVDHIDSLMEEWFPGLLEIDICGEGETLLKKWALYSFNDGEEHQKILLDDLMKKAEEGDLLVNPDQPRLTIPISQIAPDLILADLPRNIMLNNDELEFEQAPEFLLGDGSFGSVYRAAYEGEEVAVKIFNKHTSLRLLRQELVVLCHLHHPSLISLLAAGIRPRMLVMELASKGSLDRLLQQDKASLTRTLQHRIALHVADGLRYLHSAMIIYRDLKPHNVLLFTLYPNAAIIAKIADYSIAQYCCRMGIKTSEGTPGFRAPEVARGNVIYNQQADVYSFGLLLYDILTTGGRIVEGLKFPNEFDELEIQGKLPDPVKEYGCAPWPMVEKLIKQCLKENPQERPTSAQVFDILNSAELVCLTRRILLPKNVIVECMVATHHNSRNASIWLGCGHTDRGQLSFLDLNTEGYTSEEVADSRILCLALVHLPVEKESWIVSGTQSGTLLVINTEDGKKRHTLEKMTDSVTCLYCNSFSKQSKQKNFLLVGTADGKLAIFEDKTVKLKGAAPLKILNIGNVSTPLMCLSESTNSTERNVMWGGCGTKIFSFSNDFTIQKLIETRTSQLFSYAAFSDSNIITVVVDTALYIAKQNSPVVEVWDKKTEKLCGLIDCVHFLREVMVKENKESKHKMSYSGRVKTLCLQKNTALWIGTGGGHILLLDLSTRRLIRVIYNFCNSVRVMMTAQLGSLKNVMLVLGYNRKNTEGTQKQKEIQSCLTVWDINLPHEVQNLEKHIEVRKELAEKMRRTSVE
T2 sequence (P49759 129-484 limits assumed): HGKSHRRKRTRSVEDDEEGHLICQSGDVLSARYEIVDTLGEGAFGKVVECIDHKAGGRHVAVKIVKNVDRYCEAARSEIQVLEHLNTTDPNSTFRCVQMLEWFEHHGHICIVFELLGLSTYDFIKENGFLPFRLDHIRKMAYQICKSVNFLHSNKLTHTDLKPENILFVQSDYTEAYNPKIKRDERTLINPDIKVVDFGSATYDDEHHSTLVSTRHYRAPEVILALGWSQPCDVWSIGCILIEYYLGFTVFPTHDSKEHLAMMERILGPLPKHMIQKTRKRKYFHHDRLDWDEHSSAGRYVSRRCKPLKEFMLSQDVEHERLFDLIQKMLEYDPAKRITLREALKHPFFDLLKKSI

Compound	IC50 (LRRK2 (G2019S))	IC50 (human GST-DYRK1A)	IC50 (human GST-CLK1)
COc1cc(P(C)(C)=O)ccc1Nc1nc(NCC2CC2)c2c(C(F)(F)F)c[nH]c2n1 [Example 390, (4-((4-((cyclo-propylmeth-yl)amino)-5-(trifluoromethyl)-7H-pyrrolo[2,3-d]pyrimidin-2-yl)amino)-3-methoxyphenyl) dimethyl-phosphine oxide]	< 100 nM	301 to 1000 nM	< 100 nM
O=C(c1ccc(Nc2nc(NCC3CCC3)c3c(C(F)(F)F)c[nH]c3n2)c2c1CCO2)N1CCOCC1 [Example 458, (7-((4-((cyclo-butylmethyl)amino)-5-(trifluoromethyl)-7H-pyrrolo[2,3-d]pyrimidin-2-yl)amino)-2,3-dihydrobenzo-furan-4-yl) (morpholino) methanone]	< 100 nM	301 to 1000 nM	301 to 1000 nM
COc1cc(P(C)(C)=O)ccc1Nc1nc(NCC2CCCC2)c2c(C(F)(F)F)c[nH]c2n1 [Example 392, (4-((4-((cyclo-pentylmeth-yl)amino)-5-(trifluoromethyl)-7H-pyrrolo[2,3-d]pyrimidin-2-yl)amino)-3-methoxyphenyl) dimethyl-phosphine oxide]	301 to 1000 nM	301 to 1000 nM	301 to 1000 nM
CNc1nc(Nc2ccc(S(=O)(=O)N3CCC(N4CCOCC4)CC3)cc2OC)nc2[nH]ccc12 [Example 3, N^2-(2-methoxy-4-((4-morpholinopiperidin-1-yl)sulfonyl)phenyl)-N^4-methyl-7H-pyrrolo[2,3-d]pyrimidine-2,4-diamine 2,2,2-trifluoroacetate]	< 100 nM	301 to 1000 nM	301 to 1000 nM
CCNc1nc(Nc2ccc(P3(=O)CCN(C4CC4)CC3)cc2OC)nc2[nH]cc(C(F)(F)F)c12 [Example 398, 1-cyclopropyl-4-(4-((4-(ethylamino)-5-(trifluoromethyl)-7H-pyrrolo[2,3-d]pyrimidin-2-yl)amino)-3-methoxyphenyl)-1,4-azaphosphinane 4-oxide]	< 100 nM	101 to 300 nM	< 100 nM
CC[C@H](C)Nc1nc(Nc2ccc(C(=O)N3CCOCC3)c3c2OCCO3)nc2[nH]cc(C(F)(F)F)c12 [Example 381, (S)-(8-((4-(sec-butylamino)-5-(trifluoromethyl)-7H-pyrrolo[2,3-d]pyrimidin-2-yl)amino)-2,3-dihydrobenzo[b] [1,4]dioxin-5-yl)(morpholino) methanone]	< 100 nM	301 to 1000 nM	301 to 1000 nM
COCC(C)(C)Nc1nc(Nc2ccc(S(=O)(=O)N3CCC(N4CCOCC4)CC3)cc2OC)nc2[nH]ccc12 [Example 35, N^4-(1-methoxy-2-methylpropan-2-yl)-N^2-(2-methoxy-4-((morpholinopiperidin-1-yl)sulfonyl)phenyl)-7H-pyrrolo[2,3-d]pyrimidine-2,4-diamine]	< 100 nM	301 to 1000 nM	101 to 300 nM
COc1cc(S(=O)(=O)N2CCOCC2)ccc1Nc1nc(NC2CCC2)c2cc[nH]c2n1 [Example 22, N^4cyclobutyl-N^2-(2-methoxy-4-(morpholinosulfonyl)phenyl)-7H-pyrrolo[2,3-d]pyrimidine-2,4-diamine]	< 100 nM	301 to 1000 nM	301 to 1000 nM
O=C(c1ccc(Nc2nc(NCC3CCCC3)c3c(C(F)(F)F)c[nH]c3n2)c2c1CCO2)N1CCOCC1 [Example 463, (7-((4-((cyclo-pentylmeth-yl)amino)-5-(trifluoromethyl)-7H-pyrrolo[2,3-d]pyrimidin-2-yl)amino)-2,3-dihydrobenzo-furan-4-yl) (morpholino) methanone]	301 to 1000 nM	301 to 1000 nM	301 to 1000 nM
CC[C@@H](C)Nc1nc(Nc2ccc(C(=O)N3CCOCC3)c3c2OCC3)nc2[nH]cc(C#N)c12 [Example 354, (R)-4-(sec-butylamino)-2-((4-(morpholine-4-carbonyl)-2,3-dihydrobenzo-furan-yl)amino)-7H-pyrrolo[2,3-d]pyrimidine-5-carbonitrile]	< 100 nM	301 to 1000 nM	< 100 nM
CC[C@H](C)Nc1nc(Nc2ccc(C(=O)N3CCOCC3)c3c2OCC3)nc2[nH]cc(C(F)(F)F)c12 [Example 451, (S)-(7-((4-(sec-butylamino)-5-(trifluoromethyl)-7H-pyrrolo[2,3-d]pyrimidin-2-yl)amino)-2,3-dihydrobenzo-furan-4-yl) (morpholino) methanone]	< 100 nM	301 to 1000 nM	301 to 1000 nM
CC[C@@H](C)Nc1nc(Nc2ccc(S(=O)(=O)N3CCOCC3)cc2OC)nc2[nH]ccc12 [Example 59, (R)-N^4-(sec-butyl)-N^2-(2-methoxy-4-(morpholinosulfonyl)phenyl)-7H-pyrrolo[2,3-d]pyrimidine-2,4-diamine]	< 100 nM	301 to 1000 nM	301 to 1000 nM
CC[C@H](C)Nc1nc(Nc2ccc(P(C)(C)=O)cc2OC)nc2[nH]cc(C(F)(F)F)c12 [Example 385, (S)-(4-((4-(sec-butylamino)-5-(trifluoromethyl)-7H-pyrrolo[2,3-d]pyrimidin-2-yl)amino)-3-methoxyphenyl) dimethyl-phosphine oxide]	< 100 nM	301 to 1000 nM	301 to 1000 nM
CC(C)Nc1nc(Nc2ccc(C(=O)N3CCOCC3)c3c2OCCO3)nc2[nH]ccc12 [Example 45, (8-((4-(isopropylamino)-7H-pyrrolo[2,3-d]pyrimidin-2-yl)amino)-2,3-dihydrobenzo[b][1,4]dioxin-5-yl)(morpholino)methanone 2,2,2-trifluoroacetate]	< 100 nM	301 to 1000 nM	301 to 1000 nM
O=C(c1ccc(Nc2nc(NC3CCOCC3)c3c(C(F)(F)F)c[nH]c3n2)c2c1CCO2)N1CCOCC1 [Example 456, morpholino(7-((4-((tetrahydro-2H-pyran-4-yl)amino)-5-(trifluoromethyl)-7H-pyrrolo[2,3-d]pyrimidin-2-yl)amino)-2,3-dihydrobenzo-furan-4-yl)methanone]	< 100 nM	301 to 1000 nM	< 100 nM
O=C(c1ccc(Nc2nc(NC3CC3)c3cc[nH]c3n2)c2c1OCCO2)N1CCOCC1 [Example 56, (8-((4-(cyclopropylamino)-7H-pyrrolo[2,3-d]pyrimidin-2-yl)amino)-2,3-dihydrobenzo[b][1,4]dioxin-5-yl)(morpholino)methanone]	< 100 nM	301 to 1000 nM	301 to 1000 nM
CCCCNc1nc(Nc2ccc(P(C)(C)=O)cc2OC)nc2[nH]cc(C(F)(F)F)c12 [Example 393, (4-((4-(butylamino)-5-(trifluoromethyl)-7H-pyrrolo[2,3-d]pyrimidin-2-yl)amino)-3-methoxyphenyl) dimethyl-phosphine oxide]	< 100 nM	301 to 1000 nM	301 to 1000 nM
CCCCNc1nc(Nc2ccc(P3(=O)CCN(C4CC4)CC3)cc2OC)nc2[nH]cc(C(F)(F)F)c12 [Example 428, 4-(4-((4-(butylamino)-5-(trifluoromethyl)-7H-pyrrolo[2,3-d]pyrimidin-2-yl)amino)-3-methoxyphenyl)-1-cyclopropyl-1,4-azaphosphinane 4-oxide]	< 100 nM	301 to 1000 nM	301 to 1000 nM
O=C(c1ccc(Nc2nc(NC3CCOCC3)c3cc[nH]c3n2)c2c1OCCO2)N1CCOCC1 [Example 52, morpholino(8-((4-((tetrahydro-2H-pyran-4-yl)amino)-7H-pyrrolo[2,3-d]pyrimidin-2-yl)amino)-2,3-dihydrobenzo[b][1,4]dioxin-5-yl)methanone 2,2,2-trifluoroacetate]	< 100 nM	301 to 1000 nM	301 to 1000 nM
O=C(c1ccc(Nc2nc(NC3CCCC3)c3c(C(F)(F)F)c[nH]c3n2)c2c1CCO2)N1CCOCC1 [Example 453, (7-((4-(cyclo-pentylamino)-5-(trifluoromethyl)-7H-pyrrolo[2,3-d]pyrimidin-2-yl)amino)-2,3-dihydrobenzo-furan-4-yl) (morpholino) methanone]	< 100 nM	301 to 1000 nM	301 to 1000 nM
